Data from the NIST ThermoML archive (doi:10.1016/j.fluid.2006.10.025).
Where “and” joins values, the source holds several entries; their conditions need not be identical. Identical values can stand only once.

Details: 101.33 kPa, Liquid

OCC(F)(F)C(F)(F)C(F)(F)C(F)(F)C(F)(F)C(F)F [1,1,7-trihydrododecafluoroheptan-1-ol]
Details	mass density
293.15 K	1750.1 kg/m3 and 1750.2 kg/m3
303.15 K	1732.7 kg/m3
313.15 K	1715 kg/m3
323.15 K	1696.9 kg/m3
333.15 K	1678.5 kg/m3
343.15 K	1659.7 kg/m3
